{
  "source": "PubChem BioAssay (NCI)",
  "assay_in_all_cases": "NCI-60 cell line screen, 48 h",
  "key": {"786-0 renal": {"tested_on": "786-0 renal"}, "A498 renal": {"tested_on": "A498 renal"}, "A549 NSCLC": {"tested_on": "A549 NSCLC"}, "ACHN renal": {"tested_on": "ACHN renal"}, "BT-549 breast": {"tested_on": "BT-549 breast"}, "CAKI-1 renal": {"tested_on": "CAKI-1 renal"}, "CCRF-CEM leukemia": {"tested_on": "CCRF-CEM leukemia"}, "COLO 205 colon": {"tested_on": "COLO 205 colon"}, "DU-145 prostate": {"tested_on": "DU-145 prostate"}, "EKVX NSCLC": {"tested_on": "EKVX NSCLC"}, "HCC-2998 colon": {"tested_on": "HCC-2998 colon"}, "HCT-116 colon": {"tested_on": "HCT-116 colon"}, "HCT-15 colon": {"tested_on": "HCT-15 colon"}, "HL-60(TB) leukemia": {"tested_on": "HL-60(TB) leukemia"}, "HOP-92 NSCLC": {"tested_on": "HOP-92 NSCLC"}, "HS 578T breast": {"tested_on": "HS 578T breast"}, "HT29 colon": {"tested_on": "HT29 colon"}, "IGROV1 ovarian": {"tested_on": "IGROV1 ovarian"}, "K-562 leukemia": {"tested_on": "K-562 leukemia"}, "KM12 colon": {"tested_on": "KM12 colon"}, "LOX IMVI melanoma": {"tested_on": "LOX IMVI melanoma"}, "M14 melanoma": {"tested_on": "M14 melanoma"}, "MALME-3M melanoma": {"tested_on": "MALME-3M melanoma"}, "MCF7 breast": {"tested_on": "MCF7 breast"}, "MDA-MB-231 breast": {"tested_on": "MDA-MB-231 breast"}, "MDA-MB-435": {"tested_on": "MDA-MB-435"}, "MDA-N": {"tested_on": "MDA-N"}, "MOLT-4 leukemia": {"tested_on": "MOLT-4 leukemia"}, "NCI-H226 lung": {"tested_on": "NCI-H226 lung"}, "NCI-H23 lung": {"tested_on": "NCI-H23 lung"}, "NCI/ADR-RES ovarian": {"tested_on": "NCI/ADR-RES ovarian"}, "OVCAR-3 ovarian": {"tested_on": "OVCAR-3 ovarian"}, "OVCAR-5 ovarian": {"tested_on": "OVCAR-5 ovarian"}, "OVCAR-8 ovarian": {"tested_on": "OVCAR-8 ovarian"}, "PC-3 prostate": {"tested_on": "PC-3 prostate"}, "RXF 393 renal": {"tested_on": "RXF 393 renal"}, "SF-268 CNS": {"tested_on": "SF-268 CNS"}, "SF-295 CNS": {"tested_on": "SF-295 CNS"}, "SF-539 CNS": {"tested_on": "SF-539 CNS"}, "SK-MEL-2 melanoma": {"tested_on": "SK-MEL-2 melanoma"}, "SK-MEL-5 melanoma": {"tested_on": "SK-MEL-5 melanoma"}, "SK-OV-3 ovarian": {"tested_on": "SK-OV-3 ovarian"}, "SN12C renal": {"tested_on": "SN12C renal"}, "SNB-19 CNS": {"tested_on": "SNB-19 CNS"}, "SNB-75 CNS": {"tested_on": "SNB-75 CNS"}, "SW-620 colon": {"tested_on": "SW-620 colon"}, "T-47D breast": {"tested_on": "T-47D breast"}, "TK-10 renal": {"tested_on": "TK-10 renal"}, "U251 CNS": {"tested_on": "U251 CNS"}, "UACC-257 melanoma": {"tested_on": "UACC-257 melanoma"}, "UACC-62 melanoma": {"tested_on": "UACC-62 melanoma"}, "UO-31 renal": {"tested_on": "UO-31 renal"}},
  "note": "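Cells were grown in 96-well plates and exposed to each compound for 48 hours at five concentrations; endpoints were interpolated linearly between bracketing concentrations, or set to the highest concentration if not reached. TGI marks complete inhibition of growth.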",
  "data": [
    {"smiles": "Cn1c(COC(=O)NC2CCCCC2)c(COC(=O)NC2CCCCC2)c2ccc3cc(C=O)ccc3c21", "values": [
      {"measurement": "TGI", "setting": "786-0 renal", "value": "> 100", "unit": "µM"},
      {"measurement": "TGI", "setting": "A498 renal", "value": "> 100", "unit": "µM"},
      {"measurement": "TGI", "setting": "A549 NSCLC", "value": "> 100", "unit": "µM"},
      {"measurement": "TGI", "setting": "ACHN renal", "value": "> 100", "unit": "µM"},
      {"measurement": "TGI", "setting": "BT-549 breast", "value": "> 100", "unit": "µM"},
      {"measurement": "TGI", "setting": "CAKI-1 renal", "value": "> 100", "unit": "µM"},
      {"measurement": "TGI", "setting": "CCRF-CEM leukemia", "value": "> 100", "unit": "µM"},
      {"measurement": "TGI", "setting": "COLO 205 colon", "value": "> 100", "unit": "µM"},
      {"measurement": "TGI", "setting": "DU-145 prostate", "value": "> 100", "unit": "µM"},
      {"measurement": "TGI", "setting": "EKVX NSCLC", "value": "> 100", "unit": "µM"},
      {"measurement": "TGI", "setting": "HCC-2998 colon", "value": "> 100", "unit": "µM"},
      {"measurement": "TGI", "setting": "HCT-116 colon", "value": "> 100", "unit": "µM"},
      {"measurement": "TGI", "setting": "HCT-15 colon", "value": "> 100", "unit": "µM"},
      {"measurement": "TGI", "setting": "HL-60(TB) leukemia", "value": "> 100", "unit": "µM"},
      {"measurement": "TGI", "setting": "HOP-92 NSCLC", "value": "> 100", "unit": "µM"},
      {"measurement": "TGI", "setting": "HS 578T breast", "value": "> 100", "unit": "µM"},
      {"measurement": "TGI", "setting": "HT29 colon", "value": "> 100", "unit": "µM"},
      {"measurement": "TGI", "setting": "IGROV1 ovarian", "value": "> 100", "unit": "µM"},
      {"measurement": "TGI", "setting": "K-562 leukemia", "value": "> 100", "unit": "µM"},
      {"measurement": "TGI", "setting": "KM12 colon", "value": "> 100", "unit": "µM"},
      {"measurement": "TGI", "setting": "LOX IMVI melanoma", "value": "> 100", "unit": "µM"},
      {"measurement": "TGI", "setting": "M14 melanoma", "value": "> 100", "unit": "µM"},
      {"measurement": "TGI", "setting": "MALME-3M melanoma", "value": "> 100", "unit": "µM"},
      {"measurement": "TGI", "setting": "MCF7 breast", "value": "> 100", "unit": "µM"},
      {"measurement": "TGI", "setting": "MDA-MB-231 breast", "value": "> 100", "unit": "µM"},
      {"measurement": "TGI", "setting": "MDA-MB-435", "value": "> 100", "unit": "µM"},
      {"measurement": "TGI", "setting": "MDA-N", "value": "> 100", "unit": "µM"},
      {"measurement": "TGI", "setting": "MOLT-4 leukemia", "value": "> 100", "unit": "µM"},
      {"measurement": "TGI", "setting": "NCI-H226 lung", "value": "> 100", "unit": "µM"},
      {"measurement": "TGI", "setting": "NCI-H23 lung", "value": "> 100", "unit": "µM"},
      {"measurement": "TGI", "setting": "NCI/ADR-RES ovarian", "value": "> 100", "unit": "µM"},
      {"measurement": "TGI", "setting": "OVCAR-3 ovarian", "value": "> 100", "unit": "µM"},
      {"measurement": "TGI", "setting": "OVCAR-5 ovarian", "value": "> 100", "unit": "µM"},
      {"measurement": "TGI", "setting": "OVCAR-8 ovarian", "value": "> 100", "unit": "µM"},
      {"measurement": "TGI", "setting": "PC-3 prostate", "value": "> 100", "unit": "µM"},
      {"measurement": "TGI", "setting": "RXF 393 renal", "value": "> 100", "unit": "µM"},
      {"measurement": "TGI", "setting": "SF-268 CNS", "value": "> 100", "unit": "µM"},
      {"measurement": "TGI", "setting": "SF-295 CNS", "value": "> 100", "unit": "µM"},
      {"measurement": "TGI", "setting": "SF-539 CNS", "value": "> 100", "unit": "µM"},
      {"measurement": "TGI", "setting": "SK-MEL-2 melanoma", "value": "> 100", "unit": "µM"},
      {"measurement": "TGI", "setting": "SK-MEL-5 melanoma", "value": "> 100", "unit": "µM"},
      {"measurement": "TGI", "setting": "SK-OV-3 ovarian", "value": "> 100", "unit": "µM"},
      {"measurement": "TGI", "setting": "SN12C renal", "value": "> 100", "unit": "µM"},
      {"measurement": "TGI", "setting": "SNB-19 CNS", "value": "> 100", "unit": "µM"},
      {"measurement": "TGI", "setting": "SNB-75 CNS", "value": 60.8, "unit": "µM"},
      {"measurement": "TGI", "setting": "SW-620 colon", "value": "> 100", "unit": "µM"},
      {"measurement": "TGI", "setting": "T-47D breast", "value": "> 100", "unit": "µM"},
      {"measurement": "TGI", "setting": "TK-10 renal", "value": "> 100", "unit": "µM"},
      {"measurement": "TGI", "setting": "U251 CNS", "value": 87.5, "unit": "µM"},
      {"measurement": "TGI", "setting": "UACC-257 melanoma", "value": "> 100", "unit": "µM"},
      {"measurement": "TGI", "setting": "UACC-62 melanoma", "value": "> 100", "unit": "µM"},
      {"measurement": "TGI", "setting": "UO-31 renal", "value": "> 100", "unit": "µM"}
    ]}
  ]
}
